Reference: article PMC4691061, “Repositioning of Thiourea-Containing Drugs as Tyrosinase Inhibitors” (International Journal of Molecular Sciences, 2015)
Like-named read-outs stand apart in the source and are kept apart here.

Assays:
[1] = target: tyrosinase; details: cited from earlier work
[2] = target: T1, mammalian tyrosinase (Mus musculus, UniProt P11344); test: Tyrosinase enzyme assay with B16F10 cell lysates; format: biochemical, murine; details: for Cell Lysate (%): B16F10 cell lysates, DOPA substrate, absence of inhibitor = 100%; for inhibition of mammalian tyrosinase (in words): cell extracts of B16F10 cells
T1 construct: host or cells: B16F10 murine melanoma cells (lysate supernatant)
T1 sequence (P11344 19-533): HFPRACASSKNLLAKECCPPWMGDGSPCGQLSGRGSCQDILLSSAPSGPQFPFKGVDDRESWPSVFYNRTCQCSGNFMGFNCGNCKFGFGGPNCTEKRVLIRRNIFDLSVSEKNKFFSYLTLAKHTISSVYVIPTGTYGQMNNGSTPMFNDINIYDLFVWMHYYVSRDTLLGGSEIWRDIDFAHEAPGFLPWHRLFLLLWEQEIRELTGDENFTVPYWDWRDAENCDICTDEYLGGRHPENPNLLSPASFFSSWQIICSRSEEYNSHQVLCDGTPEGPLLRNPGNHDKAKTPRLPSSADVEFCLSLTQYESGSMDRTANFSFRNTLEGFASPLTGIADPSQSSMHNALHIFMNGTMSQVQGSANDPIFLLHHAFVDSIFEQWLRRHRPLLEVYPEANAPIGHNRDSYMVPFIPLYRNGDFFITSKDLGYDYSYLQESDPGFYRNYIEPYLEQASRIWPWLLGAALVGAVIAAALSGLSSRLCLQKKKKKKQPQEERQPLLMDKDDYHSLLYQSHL

[3] = system: B16F10 cells; test: Melanin content assay (IBMX-stimulated); format: cell-based, murine; details: for activity at 20 µM: Mus musculus
[4] = system: B16F10 cells; test: MTT cell viability assay; details: for MTT (%): 20 µM, mean ± SD, triplicate
[5] = target: T2, mushroom tyrosinase (Agaricus bisporus, UniProt C7FF04); test: Mushroom tyrosinase enzyme activity inhibition assay; format: biochemical; details: for LE (ligand efficiency): 1.4 × (−log10IC50)/N, N = number of non-hydrogen atoms; for inhibition of tyrosinase enzyme activity (in words): concentration-dependent profiles, urea, thiourea, selenourea compared without DMSO; for inhibition of tyrosinase (in words): at 300 μM
T2 sequence (C7FF04 1-392): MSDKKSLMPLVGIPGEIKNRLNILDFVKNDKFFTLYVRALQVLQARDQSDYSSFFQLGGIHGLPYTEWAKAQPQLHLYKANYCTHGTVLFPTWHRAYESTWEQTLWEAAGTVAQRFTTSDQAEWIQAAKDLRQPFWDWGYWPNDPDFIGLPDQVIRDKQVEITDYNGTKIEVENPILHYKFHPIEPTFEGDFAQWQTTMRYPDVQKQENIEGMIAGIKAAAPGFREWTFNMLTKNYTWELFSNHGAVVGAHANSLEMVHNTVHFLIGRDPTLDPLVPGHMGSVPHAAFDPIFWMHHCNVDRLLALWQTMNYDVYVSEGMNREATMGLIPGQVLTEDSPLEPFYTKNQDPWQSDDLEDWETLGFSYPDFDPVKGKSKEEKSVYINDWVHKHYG

[6] = target: T2, mushroom tyrosinase; test: Kinetics of enzyme inhibition (Michaelis-Menten, nonlinear fitting, F-statistics); format: biochemical; details: for Mechanism: model selected by F-statistics among competitive, uncompetitive, non-competitive, mixed
[7] = BindingDB-registered value, read-out: IC50 of closest known inhibitor
[8] = B16-F10, 20 µM, B16F10 cells, IBMX 100 μM, absence of inhibitor = 100%, read-out: Melanin Content (%)
[9] = mushroom tyrosinase, 675 μM L-tyrosine as substrate, 5% DMSO, read-out: IC50
[10] = Ki for competitive, Kic for non-competitive model, nonlinear data fitting, read-out: Ki or Kic
[11] = 20 μM, B16F10 cells, IBMX 100 μM

For `NC(=S)NN=C1CCCC1` [C00011, cyclopentanone thiosemicarbazone], the IC50 [1, 7] is listed as 0.17 µM.

For `CCCc1cc(=O)[nH]c(=S)[nH]1` [compound 9, Propylthiouracil], the “Cell Lysate (%)” value [2] was 77 ± 9%, the “inhibition of mammalian tyrosinase (in words)” value [2] was “significantly inhibited the function of tyrosinase” and the activity at 20 µM [3, 8] was 102 ± 10%. For the same compound, the “MTT (%)” value [4] was 102 ± 12%, the IC50 [5] was 375 µM and the Ki [6] was 196 µM. The Mechanism [6] was “Non-competitive”.

For `Cn1cc[nH]c1=S` [compound 5, Methimazole], the “Cell Lysate (%)” value [2] was 93 ± 10%, the “inhibition of mammalian tyrosinase (in words)” value [2] was “limited” and the activity at 20 µM [3, 8] was 104 ± 12%. For the same compound, the “MTT (%)” value [4] was 100 ± 9%, the IC50 [5, 9] was 94 µM and the Ki [6, 10] was 73 µM. For the same compound, the Mechanism [6] was “Non-competitive”, the Mechanism ([6]; listed as methimazole) was “non-competitive inhibitor” and the “inhibition mechanism (reported)” value [1] was “mixed inhibitor”.

In the case of `Cc1cc(=O)[nH]c(=S)[nH]1` [compound 8, Methylthiouracil], the “Cell Lysate (%)” value [2] is reported as 78 ± 10%, the “inhibition of mammalian tyrosinase (in words)” value [2] is reported as “significantly inhibited the function of tyrosinase” and the activity at 20 µM [3, 8] is reported as 102 ± 14%. The “MTT (%)” value [4] was 108 ± 10%, the “LE (ligand efficiency)” value [5] was 0.56 and the IC50 [5, 9] was 266 µM. For the same compound, the Ki [6, 10] was 170 µM and the Mechanism [6] was “Non-competitive”.

In the case of `O=c1cc(CO)occ1O` [compound 2, Kojic acid], the “decrease of melanin content” value [3, 11] is reported as under 5%, the activity at 20 µM [3, 8] is reported as 108 ± 11% and the “MTT (%)” value [4] is reported as 114 ± 10%. The “inhibition mechanism (reported)” value [1] was “competitive inhibitors”.

With `CCOC(=O)n1ccn(C)c1=S` [compound 6, Carbimazole] the “inhibition of tyrosinase enzyme activity (in words)” value [5] was “did not inhibit tyrosinase” and the IC50 [5, 9] was over 2000 µM.

In the case of `O=c1[nH]c(=S)[nH]c(O)c1Cc1ccc(O)cc1` [C00013], the IC50 [1, 7] is given as 70 µM and the IC50 ([1]; known tyrosinase inhibitor, read-out: IC50) is given as 70 µM.

For `NC(N)=O` [urea], the “inhibition of tyrosinase enzyme activity (in words)” value [5] was “no effect on activity”.

In the case of `CNC(=S)N(C)C` [trimethylthiourea], the “inhibition of tyrosinase (in words)” value [5] is reported as “hardly inhibited tyrosinase” and the “inhibition of tyrosinase enzyme activity (in words)” value [5] is reported as “much weaker than thiourea”.

With `CNC(N)=S` [monomethylthiourea] the “inhibition of tyrosinase enzyme activity (in words)” value [5] was “much weaker than thiourea”.

For `NC(=S)NN=Cc1ccc(F)cc1` [C00010, 4-fluorobenzaldehyde thiosemicarbazone], the IC50 [1, 7] is given as 11 µM.

In the case of `NC(=S)Nc1ccccc1` [compound 1, Phenylthiourea], the “Cell Lysate (%)” value [2] is reported as 5 ± 1%, the “decrease of melanin content” value [3, 11] is reported as 40% and the activity at 20 µM ([3]; B16-F10, read-out: Melanin Content (%)) is reported as 59 ± 7%. The “MTT (%)” value [4] was 113 ± 10%, the Mechanism [6] was “Competitive” and the Mechanism ([6]; listed as PTU) was “competitive inhibitors”. The “inhibition mechanism (reported)” value [1] was “competitive inhibitors”.

In the case of `CNC(=S)NC` [dimethylthiourea], the “inhibition of tyrosinase (in words)” value [5] is reported as “hardly inhibited tyrosinase” and the “inhibition of tyrosinase enzyme activity (in words)” value [5] is reported as “much weaker than thiourea”.

With `N=C(N)NN=C1C=CC(=NNC(N)=S)C=C1` [compound 4, Ambazone] the “Cell Lysate (%)” value [2] was 87 ± 9%, the “inhibition of mammalian tyrosinase (in words)” value [2] was “significantly inhibited the function of tyrosinase” and the “effect on melanin content (in words)” value ([3]; 20 μM, B16F10 cells) was “decreased melanin content”. The “decrease of melanin content” value [3, 11] was 20%, the activity at 20 µM [3, 8] was 80 ± 11% and the “MTT (%)” value [4] was 95 ± 12%. The “cytotoxicity (in words)” value ([4]; up to 20 μM) was “without causing cellular toxicity”, the IC50 [5] was 15 µM and the “LE (ligand efficiency)” value [5] was 0.42. For the same compound, the Ki [6] was 9 µM and the Mechanism [6] was “Non-competitive”.

In the case of `N=C(N)[SeH]` [selenourea], the “inhibition of tyrosinase enzyme activity (in words)” value [5] is reported as “no effect on activity”.

In the case of `Nn1c(-c2ccncc2)n[nH]c1=S` [C00012], the Ki ([1]; BindingDB-registered value, column headed IC50, footnote says Ki, read-out: Ki of closest known inhibitor) is given as 1 µM.

In the case of `O=c1cc[nH]c(=S)[nH]1` [compound 7, Thiouracil], the “Cell Lysate (%)” value [2] is reported as 79 ± 9%, the “inhibition of mammalian tyrosinase (in words)” value [2] is reported as “significantly inhibited the function of tyrosinase” and the activity at 20 µM [3, 8] is reported as 106 ± 14%. The “MTT (%)” value [4] was 99 ± 10%, the IC50 [5] was 215 µM and the “LE (ligand efficiency)” value [5] was 0.64. The Mechanism [6] was “Non-competitive”.

With `CN(C)C(=S)N(C)C` [tetramethylthiourea] the “inhibition of tyrosinase (in words)” value [5] was “hardly inhibited tyrosinase” and the “inhibition of tyrosinase enzyme activity (in words)” value [5] was “much weaker than thiourea”.

For `NC(N)=S` [thiourea], the “inhibition of tyrosinase enzyme activity (in words)” value [5] was “decreased tyrosinase enzyme activity in a concentration dependent manner”.

In the case of `CCCCOCCOc1ccc(Cc2c(O)[nH]c(=S)[nH]c2=O)cc1` [C00014], the IC50 [1, 7] is given as 179 µM.

In the case of `NNC(N)=S` [thiosemicarbazide], the “inhibition of tyrosinase enzyme activity (in words)” value [5] is reported as “much weaker than thiourea”.

In the case of `CC(=O)Nc1ccc(/C=N/NC(N)=S)cc1` [compound 3, Thioacetazone], the “Cell Lysate (%)” value [2] is reported as 74 ± 7%, the “inhibition of mammalian tyrosinase (in words)” value [2] is reported as “significantly inhibited the function of tyrosinase” and the activity at 20 µM [3, 8] is reported as 102 ± 10%. For the same compound, the “MTT (%)” value [4] was 95 ± 15%, the IC50 [5] was 14 µM and the “LE (ligand efficiency)” value [5] was 0.43. The Ki [6] was 18 µM and the Mechanism [6] was “Non-competitive”.
